Assays:
Type in all cases: biochemical
[1] = target: T1, NUAK1 (Homo sapiens, UniProt O60285); test: Counter-screen against NUAK1
T1 sequence (O60285 1-661): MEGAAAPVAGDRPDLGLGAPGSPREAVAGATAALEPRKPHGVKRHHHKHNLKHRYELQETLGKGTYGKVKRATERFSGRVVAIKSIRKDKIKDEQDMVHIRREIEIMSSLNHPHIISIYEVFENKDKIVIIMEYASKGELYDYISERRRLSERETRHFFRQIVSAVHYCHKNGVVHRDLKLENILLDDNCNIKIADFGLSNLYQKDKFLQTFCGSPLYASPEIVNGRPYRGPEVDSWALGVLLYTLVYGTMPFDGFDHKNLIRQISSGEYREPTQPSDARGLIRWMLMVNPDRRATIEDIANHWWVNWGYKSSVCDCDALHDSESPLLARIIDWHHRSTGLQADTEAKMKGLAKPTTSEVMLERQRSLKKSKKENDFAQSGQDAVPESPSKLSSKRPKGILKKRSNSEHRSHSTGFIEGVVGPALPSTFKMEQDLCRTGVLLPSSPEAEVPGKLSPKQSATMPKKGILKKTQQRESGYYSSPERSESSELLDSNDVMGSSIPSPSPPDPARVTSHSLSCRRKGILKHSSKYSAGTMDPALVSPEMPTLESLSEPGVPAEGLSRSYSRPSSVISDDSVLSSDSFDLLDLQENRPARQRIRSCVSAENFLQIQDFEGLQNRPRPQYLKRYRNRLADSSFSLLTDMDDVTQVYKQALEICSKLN
Procedure: (§1) To identify small molecule NUAK inhibitors, a biochemical NUAK2 enzymatic assay were outsourced to Eurofins. This assay was done radiometrically using full-length, recombinant enzyme. NUAK2 (h) was incubated with 8 mM MOPS pH 7.0, 0.2 mM EDTA, 300 μM […], 10 mM magnesium acetate and […] (specific activity and concentration as required). The reaction was initiated by the addition of the Mg/ATP mix. After incubation for 40 minutes at room temperature, the reaction was stopped by the addition of phosphoric acid to a concentration of 0.5%. 10 μL of the reaction was then spotted onto a P30 filtermat and washed four times for 4 minutes in 0.425% phosphoric acid and once in methanol prior to drying and scintillation counting. Compounds were routinely counter-screened against Aurora A and NUAK1. The results are shown in Table 1 where IC50's are reported in the following ranges: A: 0.1-10 nM; B: 11-100 nM; C: 101-1000 nM; D: >1000 nM for the compounds of Formula (I)

[2] = target: T2, NUAK2 (h) (Homo sapiens, UniProt Q9H093); test: NUAK2 enzymatic assay (radiometric, Eurofins); conditions: full-length recombinant enzyme
T2 construct: This assay was done radiometrically using full-length, recombinant enzyme; purchased Eurofins
T2 sequence (Q9H093 1-628): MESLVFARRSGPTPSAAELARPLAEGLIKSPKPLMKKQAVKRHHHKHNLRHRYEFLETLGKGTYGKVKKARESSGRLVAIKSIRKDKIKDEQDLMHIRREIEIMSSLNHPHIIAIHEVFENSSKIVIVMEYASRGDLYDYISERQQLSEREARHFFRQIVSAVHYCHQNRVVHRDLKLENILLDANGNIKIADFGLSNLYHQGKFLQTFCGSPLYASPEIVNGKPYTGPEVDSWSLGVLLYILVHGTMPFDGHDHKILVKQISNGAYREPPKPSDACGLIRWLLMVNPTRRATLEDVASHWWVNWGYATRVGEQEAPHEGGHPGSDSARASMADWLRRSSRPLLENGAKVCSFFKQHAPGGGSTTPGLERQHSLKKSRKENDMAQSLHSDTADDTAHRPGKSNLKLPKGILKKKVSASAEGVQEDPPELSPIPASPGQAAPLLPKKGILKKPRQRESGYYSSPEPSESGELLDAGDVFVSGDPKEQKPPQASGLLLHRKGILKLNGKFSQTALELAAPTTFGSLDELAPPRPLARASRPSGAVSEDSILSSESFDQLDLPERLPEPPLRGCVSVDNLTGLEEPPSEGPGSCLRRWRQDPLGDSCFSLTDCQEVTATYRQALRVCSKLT
Procedure: as §1

[3] = target: T3, Aurora A (Homo sapiens, UniProt O14965); test: Counter-screen against Aurora A; conditions: read-out: AUR-A (IC50)
T3 sequence (O14965 1-403): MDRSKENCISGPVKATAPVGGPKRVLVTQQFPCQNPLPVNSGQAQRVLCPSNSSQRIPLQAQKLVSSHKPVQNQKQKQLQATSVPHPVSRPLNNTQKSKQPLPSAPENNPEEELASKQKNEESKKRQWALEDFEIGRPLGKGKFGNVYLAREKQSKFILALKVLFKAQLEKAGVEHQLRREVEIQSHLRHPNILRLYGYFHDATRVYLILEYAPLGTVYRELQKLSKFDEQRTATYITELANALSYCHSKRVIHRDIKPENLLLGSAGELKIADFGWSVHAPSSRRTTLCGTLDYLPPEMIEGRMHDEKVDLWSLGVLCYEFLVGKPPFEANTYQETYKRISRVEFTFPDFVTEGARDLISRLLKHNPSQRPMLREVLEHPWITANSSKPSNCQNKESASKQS
Procedure: as §1

IC50 [1] | IC50 [2] | IC50 [3] | Compound
0.011 to 0.1 µM | 0.0001 to 0.01 µM | > 1 µM | COc1cc2c(cc1Nc1ncc(Cl)c(Nc3cccc4c3C(=O)NC4)n1)CCN(C(C)C)C2 [Compound I-18, 7-((5-chloro-2-((2-isopropyl-7-methoxy-1,2,3,4-tetrahydroisoquinolin-6-yl)amino)pyrimidin-4-yl)amino)isoindolin-1-one]
0.101 to 1 µM | 0.011 to 0.1 µM | > 1 µM | COc1cc2c(cc1Nc1ncc(Cl)c(Nc3cccc4c3C(=O)NC4)n1)CCN(CCC(F)(F)F)C2 [Compound I-19, 7-((5-chloro-2-((7-methoxy-2-(3,3,3-trifluoropropyl)-1,2,3,4-tetrahydroisoquinolin-6-yl)amino)pyrimidin-4-yl)amino)isoindolin-1-one]
0.011 to 0.1 µM | 0.0001 to 0.01 µM | 0.101 to 1 µM | CN1CCN(C2CCN(c3ccc(Nc4ncc(C(F)(F)F)c(Nc5cccc6c5C(=O)NC6)n4)c(OC(F)F)c3)CC2)CC1 [Compound I-20, 7-((2-((2-(difluoromethoxy)-4-(4-(4-methylpiperazin-1-yl)piperidin-1-yl)phenyl)amino)-5-(trifluoromethyl)pyrimidin-4-yl)amino)isoindolin-1-one]
0.011 to 0.1 µM | 0.011 to 0.1 µM | 0.101 to 1 µM | COc1cc2c(cc1Nc1ncc(C(F)(F)F)c(Nc3cccc4c3C(=O)NC4)n1)CN(C)CC2 [Compound I-21, 7-((2-((6-methoxy-2-methyl-1,2,3,4-tetrahydroisoquinolin-7-yl)amino)-5-(trifluoromethyl)pyrimidin-4-yl)amino)isoindolin-1-one]
0.011 to 0.1 µM | 0.0001 to 0.01 µM | 0.101 to 1 µM | COc1cc2c(cc1Nc1ncc(C(F)(F)F)c(Nc3cccc4c3C(=O)NC4)n1)CCN(C)C2 [Compound I-22, 7-((2-((7-methoxy-2-methyl-1,2,3,4-tetrahydroisoquinolin-6-yl)amino)-5-(trifluoromethyl)pyrimidin-4-yl)amino)isoindolin-1-one]
0.011 to 0.1 µM | 0.011 to 0.1 µM | 0.101 to 1 µM | COc1cc2c(cc1Nc1ncc(Cl)c(Nc3cccc4c3C(=O)NC4)n1)CNCC2 [Compound I-23, 7-((5-chloro-2-((6-methoxy-1,2,3,4-tetrahydroisoquinolin-7-yl)amino)pyrimidin-4-yl)amino)isoindolin-1-one]
0.011 to 0.1 µM | 0.0001 to 0.01 µM | > 1 µM | O=C1NCc2cccc(Nc3nc(Nc4ccc(N5CCNCC5)cc4OC(F)F)ncc3Cl)c21 [Compound I-24, 7-((5-chloro-2-((2-(difluoromethoxy)-4-(piperazin-1-yl)phenyl)amino)pyrimidin-4-yl)amino)isoindolin-1-one]
0.011 to 0.1 µM | 0.011 to 0.1 µM | > 1 µM | COc1cc2c(cc1Nc1ncc(Cl)c(Nc3cccc4c3C(=O)NC4)n1)CNCC21CC1 [Compound I-25, 7-((5-chloro-2-((6′-methoxy-2′,3′-dihydro-1′H-spiro[cyclopropane-1,4′-isoquinolin]-7′-yl)amino)pyrimidin-4-yl)amino)isoindolin-1-one]
0.011 to 0.1 µM | 0.011 to 0.1 µM | > 1 µM | COc1cc2c(cc1Nc1ncc(Cl)c(Nc3cccc4c3C(=O)NC4)n1)CCNCC2 [Compound I-26, 7-((5-chloro-2-((8-methoxy-2,3,4,5-tetrahydro-1H-benzo[d]azepin-7-yl)amino)pyrimidin-4-yl)amino)isoindolin-1-one]
0.011 to 0.1 µM | 0.0001 to 0.01 µM | > 1 µM | CN1C[C@@H]2CN(c3ccc(Nc4ncc(Cl)c(Nc5cccc6c5C(=O)NC6)n4)c(OC(F)F)c3)C[C@@H]2C1 [Compound I-28, 7-((5-chloro-2-((2-(difluoromethoxy)-4-((3aR,6aS)-5-methylhexahydropyrrolo[3,4-c]pyrrol-2(1H)-yl)phenyl)amino)pyrimidin-4-yl)amino)isoindolin-1-one]
0.011 to 0.1 µM | 0.011 to 0.1 µM | 0.101 to 1 µM | COc1c(Nc2ncc(Cl)c(Nc3cccc4c3C(=O)NC4)n2)ccc(N2C[C@H]3CN(C)C[C@H]3C2)c1F [Compound I-29, 7-((5-chloro-2-((3-fluoro-2-methoxy-4-((3aR,6aS)-5-methylhexahydropyrrolo[3,4-c]pyrrol-2(1H)-yl)phenyl)amino)pyrimidin-4-yl)amino)isoindolin-1-one]
0.0001 to 0.01 µM | 0.0001 to 0.01 µM | 0.101 to 1 µM | COc1cc2c(cc1Nc1ncc(C(F)(F)F)c(Nc3cccc4c3C(=O)NC4)n1)CNCC2 [Compound I-30, 7-((2-((6-methoxy-1,2,3,4-tetrahydroisoquinolin-7-yl)amino)-5-(trifluoromethyl)pyrimidin-4-yl)amino)isoindolin-1-one]
0.011 to 0.1 µM | 0.0001 to 0.01 µM | 0.101 to 1 µM | CC(C)(C)N1CCN(C2CCN(c3ccc(Nc4ncc(C(F)(F)F)c(Nc5cccc6c5C(=O)NC6)n4)c(OC(F)F)c3)CC2)CC1 [Compound I-31, 7-((2-((4-(4-(4-(tert-butyl)piperazin-1-yl)piperidin-1-yl)-2-(difluoromethoxy)phenyl)amino)-5-(trifluoromethyl)pyrimidin-4-yl)amino)isoindolin-1-one]
0.011 to 0.1 µM | 0.011 to 0.1 µM | 0.101 to 1 µM | CC(C)N1CCN(C2CCN(c3ccc(Nc4ncc(C(F)(F)F)c(Nc5cccc6c5C(=O)NC6)n4)c(OC(F)F)c3)CC2)CC1 [Compound I-32, 7-((2-((2-(difluoromethoxy)-4-(4-(4-isopropylpiperazin-1-yl)piperidin-1-yl)phenyl)amino)-5-(trifluoromethyl)pyrimidin-4-yl)amino)isoindolin-1-one]
0.011 to 0.1 µM | 0.011 to 0.1 µM | 0.101 to 1 µM | COc1c(Nc2ncc(C(F)(F)F)c(Nc3cccc4c3C(=O)NC4)n2)ccc(N2C[C@H]3CN(C)C[C@H]3C2)c1F [Compound I-35, 7-((2-((3-fluoro-2-methoxy-4-((3aR,6aS)-5-methylhexahydropyrrolo[3,4-c]pyrrol-2(1H)-yl)phenyl)amino)-5-(trifluoromethyl)pyrimidin-4-yl)amino)isoindolin-1-one]
0.0001 to 0.01 µM | 0.011 to 0.1 µM | 0.011 to 0.1 µM | CN1CCN(c2ccc(Nc3ncc(C(F)(F)F)c(Nc4cccc5c4C(=O)NC5)n3)c(Cl)c2F)CC1 [Compound I-36, 7-((2-((2-chloro-3-fluoro-4-(4-methylpiperazin-1-yl)phenyl)amino)-5-(trifluoromethyl)pyrimidin-4-yl)amino)isoindolin-1-one]
0.011 to 0.1 µM | 0.0001 to 0.01 µM | 0.011 to 0.1 µM | COc1c(Nc2ncc(C(F)(F)F)c(Nc3cccc4c3C(=O)NC4)n2)ccc(N2CCC(N3CCCC3)CC2)c1F [Compound I-37, 7-((2-((3-fluoro-2-methoxy-4-(4-(pyrrolidin-1-yl)piperidin-1-yl)phenyl)amino)-5-(trifluoromethyl)pyrimidin-4-yl)amino)isoindolin-1-one]
